Data set [1] in a line: Dynamic light scattering assay of nano-aggregation. The data set is classed as physicochemical. As to conditions: MST buffer with Pluronic F127. As to the method: Measurements were made using a DynaPro MS/X (Wyatt Technology) with a 55 mW laser at 826.6 nm, using a detector angle of 90°. The laser power was 100%, and the acquisition time was 2 s. Histograms represent the average of three independent data sets, each with at least 10 measurements.

The subject of data set [2] is Nurr1 (siRNA knockdown) in MN9D cells. The experiment in a line: Nurr1 knockdown (siRNA) assay with qPCR of target genes in MN9D cells. The data set is classed as cell-based, mouse. The conditions noted are these: 10 μM, 24 h, Nurr1 siRNA vs control siRNA. As to the method: Nurr1 knockdown (siRNA) assays were completed according to standard protocols. Briefly, MN9D cells were resuspended in DMEM/F-12 with 5% FBS at 1·10^6 cells/mL, and reverse-transfected with either control or Nurr1 siRNAs (40 nM final concentration) by combining 4 mL of cell suspension with 1 mL of Opti-MEM containing 200 nM siRNA and 10 μL Lipofectamine 2000 (Invitrogen, cat #:11668019). The resulting cell suspension was plated on poly-D-lysine treated six-well plates at 2.5 mL/well, and allowed to incubate for 24 h at 37° C., in 5% CO2 incubator. After 24 hours, the cells were trypsinized, resuspended in DMEM/F-12 with 5% FBS at 2·10^5 cells/mL, mixed with equal volume of 20 μM 5-chloroindole in the same media containing 0.2% DMSO (prepared by diluting DMSO stock of 5-chloroindole (10 mM) in warm DMEM/F-12 with 5% FBS; for the DMSO control an equivalent volume of DMSO was used instead of the compound stock), and immediately re-plated on poly-D-lysine pre-treated 24-well plates at 1-10^5 cells/well and incubated as above. After 24 hours, total RNA was isolated and the target gene transcription assay (qPCR) was performed as described above. Nurr1 siRNA N1 were purchased from Sigma (Cat No. SASI_Mm02_00322368), and the sequences were as follows: 5′-GAA UCA GCU UUC UUA GAA U[dT][dT]-3′ (SEQ ID NO:17) (sense) and 5′-AUU CUA AGA AAG CUG AUU C[dT][dT]-3′ (SEQ ID NO:18) (antisense). […]

Data set [3] concerns the target T1, full-length Nurr1 (NBRE response element) (Mus musculus, UniProt Q06219).
T1 construct: a cell line derived from dopaminergic neurons which endogenously expresses full length Nurr1 and its target genes; endogenous in cells; host or cells: MN9D TET-ON cells
Briefly: Full-length Nurr1 NBRE luciferase reporter assay in MN9D cells. The data set is classed as cell-based. As to conditions: 6 h treatment. As for the experimental part:
Luciferase Reporter Assays. These assays were executed using standard protocols. MN9D TET-ON cells (P5) were grown for 60-72 h (see above) before being seeded at 1-10^5 cell/well in 24-well plate in DMEM/F12+5% TET-ON approved FBS 3 h before transfection. Cells were transfected using Lipofectamine 2000 (Invitrogen) and plasmid DNAs according to manufacturer's instructions. Lipofectamine/DNA complexes were prepared in Opti-Mem medium (Gibco) and incubated with cells overnight. The Nurr1-LBD_Gal4-DBD expressing plasmid was prepared by subcloning the Nurr1 LBD fragment into […] plasmid (Clontech) containing GAL4 DBD. The reporter plasmid pGL4.35 (luc2P/9XGAL4 UAS/Hygro) Vector (Promega) contains nine repeats of GAL4 UAS (Upstream Activator Sequence) and drives transcription of the luciferase reporter gene luc2P in response to binding of Nurr-LBD_Gal4-DBD chimeric protein. The pRL-null (Promega) plasmid expressing renilla luciferase was used as an internal control. […] Alternatively, cells were co-transfected with the reporter plasmid NBREx3-POMC-Luc containing three copies of the NBRE sequence ([NT] ID NO:23)) subcloned into the pXP1-luc plasmid containing the minimal (positions -34 to +63) POMC promoter as described previously^7, and the pRL-null plasmid. […] Transfected cells were treated with increasing concentrations of 5-chloroindole or vehicle only for 6 h, after which time the media was aspirated and luciferase activity was measured. Cells from each well were incubated for 15 min with 220 μL/well of Dual-Glo® Luciferase Reagent (Promega) at room temperature upon rotation on the orbital shaker. […] Resulting solutions were transferred to a white opaque 96-well plate (65 μL/well; 3 wells/sample) and firefly luciferase activity was measured using Veritas Microplate Luminometer (Turner BioSystems, Sunnyvale, Calif.). […] Renilla luciferase activity was measured after 20 min of incubation of the plate inside the luminometer. Experimental values are expressed as the average of firefly/renilla luciferase activity±standard deviation (for three independent biological replicates). […]
For orientation: A reporter such as luciferase makes a cellular process visible.

SMILES strings stand for the structures. “Also recorded” adds a separate entry of the source.

T1 sequence (Q06219 whole entry): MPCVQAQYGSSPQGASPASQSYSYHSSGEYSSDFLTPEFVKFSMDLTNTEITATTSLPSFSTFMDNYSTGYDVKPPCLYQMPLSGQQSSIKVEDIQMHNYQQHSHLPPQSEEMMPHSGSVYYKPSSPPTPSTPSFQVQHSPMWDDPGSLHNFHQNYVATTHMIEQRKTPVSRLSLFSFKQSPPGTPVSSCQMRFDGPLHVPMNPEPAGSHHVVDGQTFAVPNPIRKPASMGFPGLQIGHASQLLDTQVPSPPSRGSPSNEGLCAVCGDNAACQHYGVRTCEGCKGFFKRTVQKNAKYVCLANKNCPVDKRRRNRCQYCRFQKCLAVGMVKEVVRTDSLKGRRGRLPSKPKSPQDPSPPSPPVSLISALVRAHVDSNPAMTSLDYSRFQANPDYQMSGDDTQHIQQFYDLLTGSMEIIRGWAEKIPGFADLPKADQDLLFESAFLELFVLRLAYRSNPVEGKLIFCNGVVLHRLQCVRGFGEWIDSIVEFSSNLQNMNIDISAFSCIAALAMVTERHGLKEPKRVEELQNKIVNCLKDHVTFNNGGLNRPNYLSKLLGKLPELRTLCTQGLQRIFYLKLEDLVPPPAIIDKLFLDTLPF

With `Clc1ccc2[nH]ccc2c1` [5-chloroindole], the Nano-aggregation properties entry in data set [1] is given as “minimal”. The “Effect on expression of Th and Vmat2 with knockdown of Nurr1” value in data set [2] is “significantly reduced in the presence of Nurr1 siRNA, but not control siRNA; also recorded: inhibited by siRNA specific for Nurr1”. Moreover, the “Luciferase production, full-length Nurr1 NBRE reporter” value in data set [3] is “stimulates production of luciferase; also recorded: stimulates the activity of Nurr1”.

Values taken from patent US20230255934A1, “NURR1 RECEPTOR MODULATORS AND USES THEREOF” (The Regents of the University of California, priority 2020, published 2023).
